Values after ≈ are worked out from the molar mass of the structure shown. Where two headings read alike, the source gives them in different places.
Key:
Aspergillus niger (An) = assay: MIC in malt yeast agar, Aspergillus niger; assay type: cell-based, Aspergillus niger ATCC 16404; details: malt yeast agar; read-out: Minimum Inhibitory Concentration, An
Protocol: (§1) The minimum inhibitory concentration (MIC) for the compounds listed in Table I is determined for 9 bacteria, using nutrient agar, and 7 yeast and fungi, using malt yeast agar. A one percent solution of the test compound is prepared in a mixture of acetone and water. Nutrient agar is prepared at pH 6.8, representing a neutral medium, and at pH 8.2, representing an alkaline medium. The nutrient agars are prepared by adding 23 g of nutrient agar to one-liter of deionized water. In addition, the alkaline medium is prepared by adjusting a 0.04M solution of N-[tris-(hydroxymethyl)methyl]-glycine buffered deionized water with concentrated sodium hydroxide to a pH of […]. Malt yeast agar is prepared by adding 3 g yeast extract and 45 g malt agar per liter of deionized water. The specific agar is dispensed in 30 ml aliquots into 25×200 mm test tubes, capped and autoclaved for 15 minutes at 115° C. The test tubes containing the agar are cooled in a water bath until the temperature of the agar is 48° C. Then, an appropriate amount of the one percent solution of the test compound is added (except in the controls where no compound is added) to the respective test tubes so that the final concentrations are 500, 250, 100, 50, 25, 10, 5, 2.5, 1.0 and zero parts per million of the test compound in the agar, thus having a known concentration of test compound dispersed therein. The contents of the test tubes are then transferred to respective petri plates. After drying for 24 hours, the petri plates containing nutrient agar are inoculated with bacteria and those containing malt yeast agar are inoculated with yeast and fungi.
(§2) The inoculation with the yeast and fungi is accomplished as follows. Cultures of yeast and fungi are incubated for seven days on malt yeast agar at 30° C. These cultures are used to prepare suspensions by the following procedure. A suspension of each organism is prepared by adding 10 ml of sterile saline and 10 microliters of octylphenoxy polyethoxy ethanol (TRITON® X-100, a trademark of Rohm & Haas Company) to the agar slant of yeast or fungi. The sterile saline/octylphenoxy polyethoxy ethanol solution is then agitated with a sterile swab to suspend the microorganism grown on the slant. Each resulting suspension is diluted into sterile saline (1 part suspension: 9 parts sterile saline). Aliquots of these dilutions are placed in individual wells of Steer's Replicator and petri plates inoculated as previously described. The petri plates are incubated at 30° C. and read after 48 hours for yeast and 72 hours for fungi.
(§3) Table II lists the bacteria, yeast and fungi used in the MIC test described above along with their respective American Type Culture Collection (ATCC) identification numbers.
(§4) The following MIC and MEC antimicrobial tests, whose results are shown in Tables XIII-XVII, are performed using the same methods as described hereinabove.

Escherichia coli (Ec) = assay: MIC in nutrient agar, Escherichia coli; assay type: cell-based, Escherichia coli ATCC 11229
Protocol: as §1
(§5) The inoculation with bacteria is accomplished by using the following procedure. Twenty-four hour-cultures of each of the bacteria are prepared by incubating the respective bacteria in tubes containing nutrient broth for 24 hours at 30° C. in a shaker. Dilutions of each of the 24 hour-cultures are made so that nine separate suspensions (one for each of the nine test bacteria) are made, each containing 10^8 colony forming units (CFU) per ml of suspension of a particular bacteria. Aliquots of 0.3 ml of each of the bacterial suspensions are used to fill the individual wells of Steer's Replicator. For each microbial suspension, 0.3 ml was used to fill three wells (i.e., three wells of 0.3 ml each) so that for the nine different bacteria, 27 wells are filled. The Steer's Replicator is then used to inoculate both the neutral and alkaline pH nutrient agar petri plates.
(§6) The inoculated petri plates are incubated at 30° C. for 48 hours and then read to determine if the test compound which is incorporated into the agar prevented growth of the respective bacteria.
as §3, §4

Candida albicans (Ca) = assay: MIC in malt yeast agar, Candida albicans; assay type: cell-based, Candida albicans ATCC 10231; details: malt yeast agar; read-out: Minimum Inhibitory Concentration, Ca
Protocol: as §1, §2, §3, §4

[1] = tested on: Enterobacter aerogenes (Ea); assay: MIC in nutrient agar, Enterobacter aerogenes; assay type: cell-based, Enterobacter aerogenes ATCC 13048
Protocol: as §1, §5, §6, §3, §4

[2] = tested on: Penicillium chrysogenum (Pc); assay: MIC in malt yeast agar, Penicillium chrysogenum; assay type: cell-based, Penicillium chrysogenum ATCC 9480; details: malt yeast agar; read-out: Minimum Inhibitory Concentration, Pc
Protocol: as §1, §2, §3, §4

Fusarium oxysporum (Fo) = assay: MIC in malt yeast agar, Fusarium oxysporum; assay type: cell-based, Fusarium oxysporum ATCC 48112; details: malt yeast agar; read-out: Minimum Inhibitory Concentration, Fo
Protocol: as §1, §2, §3, §4

[3] = tested on: Aureobasidium pullulan (Ap); assay: MIC in malt yeast agar, Aureobasidium pullulan; assay type: cell-based, Aureobasidium pullulan ATCC 16622; details: malt yeast agar; read-out: Minimum Inhibitory Concentration, Ap
Protocol: as §1, §2, §3, §4

[4] = tested on: Klebsiella pneumoniae (Kp); assay: MIC in nutrient agar, Klebsiella pneumoniae; assay type: cell-based, Klebsiella pneumoniae ATCC 8308
Protocol: as §1, §5, §6, §3, §4

Proteus vulgaris (Pv) = assay: MIC in nutrient agar, Proteus vulgaris; assay type: cell-based, Proteus vulgaris ATCC 881
Protocol: as §1, §5, §6, §3, §4

[5] = tested on: Pseudomonas aeruginosa (PRD-10); assay: MIC in nutrient agar, Pseudomonas aeruginosa PRD-10; assay type: cell-based, Pseudomonas aeruginosa ATCC 15442
Protocol: as §1, §5, §6, §3, §4

[6] = tested on: Salmonella choleraesuis (Sc); assay: MIC in nutrient agar, Salmonella choleraesuis; assay type: cell-based, Salmonella choleraesuis ATCC 10708
Protocol: as §1, §5, §6, §3, §4

[7] = tested on: Staphylococcus aureus (Sa); assay: MIC in nutrient agar, Staphylococcus aureus; assay type: cell-based, Staphylococcus aureus ATCC 6538; details: Staphylococcus aureus, read-out: Minimum Inhibitory Concentration, Sa
Protocol: as §1, §5, §6, §3, §4

Trichoderma viride (Tv) = assay: MIC in malt yeast agar, Trichoderma viride; assay type: cell-based, Trichoderma viride ATCC 8678; details: malt yeast agar; read-out: Minimum Inhibitory Concentration, Tv
Protocol: as §1, §2, §3, §4

[8] = tested on: Pseudomonas aeruginosa (Pa); assay: MIC in nutrient agar, Pseudomonas aeruginosa; assay type: cell-based, Pseudomonas aeruginosa ATCC 10145
Protocol: as §1, §5, §6, §3, §4

[9] = tested on: Saccharomyces cerevisiae (Sc); assay: MIC in malt yeast agar, Saccharomyces cerevisiae; assay type: cell-based, Saccharomyces cerevisiae ATCC 4105; details: read-out: Minimum Inhibitory Concentration, Sc
Protocol: as §1, §2, §3, §4

Bacillus subtilis (Bs) = assay: MIC in nutrient agar, Bacillus subtilis; assay type: cell-based, Bacillus subtilis ATCC 8473; details: Bacillus subtilis, read-out: Minimum Inhibitory Concentration, Bs
Protocol: as §1, §5, §6, §3, §4

[10] = pH 6.8, read-out: Minimum Inhibitory Concentration, Kp
[11] = pH 8.2, read-out: Minimum Inhibitory Concentration, Kp
[12] = pH 6.8, read-out: Minimum Inhibitory Concentration, Pv
[13] = pH 8.2, read-out: Minimum Inhibitory Concentration, Pv
[14] = Pseudomonas aeruginosa, pH 8.2; read-out: Minimum Inhibitory Concentration, PRD
[15] = pH 6.8, read-out: Minimum Inhibitory Concentration, Pa
[16] = pH 8.2, read-out: Minimum Inhibitory Concentration, Pa

## CCCCCCCCCCSC#CC#N [E, 3-decylthio-2-propynenitrile]
Aspergillus niger (An)
  MIC: > 500 µg/mL
Escherichia coli (Ec); Escherichia coli, pH 6.8, read-out: Minimum Inhibitory Concentration, Ec
  MIC: > 500 µg/mL
Escherichia coli (Ec); Escherichia coli, pH 8.2; read-out: Minimum Inhibitory Concentration, Ec
  MIC: 100 µg/mL (≈ 448 µM)
Candida albicans (Ca)
  MIC: > 500 µg/mL
[1]; Klebsiella aerogenes, pH 6.8, read-out: Minimum Inhibitory Concentration, Ea
  MIC: > 500 µg/mL
[1]; Klebsiella aerogenes, pH 8.2, read-out: Minimum Inhibitory Concentration, Ea
  MIC: > 500 µg/mL
[2]
  MIC: 500 µg/mL (≈ 2240 µM)
Fusarium oxysporum (Fo)
  MIC: 500 µg/mL (≈ 2240 µM)
[3]
  MIC: > 500 µg/mL
[4]; [10]
  MIC: > 500 µg/mL
[4]; [11]
  MIC: > 500 µg/mL
Proteus vulgaris (Pv); [12]
  MIC: > 500 µg/mL
Proteus vulgaris (Pv); [13]
  MIC: > 500 µg/mL
[5]; Pseudomonas aeruginosa, pH 6.8, read-out: Minimum Inhibitory Concentration, PRD
  MIC: > 500 µg/mL
[5]; [14]
  MIC: 25 µg/mL (≈ 112 µM)
[6]; Salmonella enterica, CHOLERAESUIS, pH 6.8, read-out: Minimum Inhibitory Concentration, Sc
  MIC: > 500 µg/mL
[6]; Salmonella enterica, CHOLERAESUIS, pH 8.2, read-out: Minimum Inhibitory Concentration, Sc
  MIC: > 500 µg/mL
[7]; pH 6.8
  MIC: 25 µg/mL (≈ 112 µM)
[7]; pH 8.2
  MIC: 25 µg/mL (≈ 112 µM)
Trichoderma viride (Tv)
  MIC: 500 µg/mL (≈ 2240 µM)
[8]; [15]
  MIC: > 500 µg/mL
[8]; [16]
  MIC: 500 µg/mL (≈ 2240 µM)
[9]
  MIC: 25 µg/mL (≈ 112 µM)
Bacillus subtilis (Bs); pH 6.8
  MIC: 100 µg/mL (≈ 448 µM)
Bacillus subtilis (Bs); pH 8.2
  MIC: 25 µg/mL (≈ 112 µM)

## CCCCCCCCCCCCSC#CC#N [F, 3-dodecylthio-2-propynenitrile]
Aspergillus niger (An)
  MIC: > 500 µg/mL
Escherichia coli (Ec); Escherichia coli, pH 6.8; read-out: Minimum Inhibitory Concentration, Ec
  MIC: > 500 µg/mL
Escherichia coli (Ec); Escherichia coli, pH 8.2, read-out: Minimum Inhibitory Concentration, Ec
  MIC: > 500 µg/mL
Candida albicans (Ca)
  MIC: > 500 µg/mL
[1]; Klebsiella aerogenes, pH 6.8; read-out: Minimum Inhibitory Concentration, Ea
  MIC: > 500 µg/mL
[1]; Klebsiella aerogenes, pH 8.2; read-out: Minimum Inhibitory Concentration, Ea
  MIC: > 500 µg/mL
[2]
  MIC: 500 µg/mL (≈ 1990 µM)
Fusarium oxysporum (Fo)
  MIC: > 500 µg/mL
[3]
  MIC: > 500 µg/mL
[4]; [10]
  MIC: > 500 µg/mL
[4]; [11]
  MIC: > 500 µg/mL
Proteus vulgaris (Pv); [12]
  MIC: > 500 µg/mL
Proteus vulgaris (Pv); [13]
  MIC: > 500 µg/mL
[5]; Pseudomonas aeruginosa, pH 6.8; read-out: Minimum Inhibitory Concentration, PRD
  MIC: > 500 µg/mL
[5]; [14]
  MIC: 100 µg/mL (≈ 398 µM)
[6]; Salmonella enterica, CHOLERAESUIS, pH 6.8; read-out: Minimum Inhibitory Concentration, Sc
  MIC: > 500 µg/mL
[6]; Salmonella enterica, CHOLERAESUIS, pH 8.2; read-out: Minimum Inhibitory Concentration, Sc
  MIC: > 500 µg/mL
[7]; pH 6.8
  MIC: > 500 µg/mL
[7]; pH 8.2
  MIC: 25 µg/mL (≈ 99.4 µM)
Trichoderma viride (Tv)
  MIC: > 500 µg/mL
[8]; [15]
  MIC: > 500 µg/mL
[8]; [16]
  MIC: 500 µg/mL (≈ 1990 µM)
[9]; malt yeast agar
  MIC: > 500 µg/mL
Bacillus subtilis (Bs); pH 6.8
  MIC: 100 µg/mL (≈ 398 µM)
Bacillus subtilis (Bs); pH 8.2
  MIC: 100 µg/mL (≈ 398 µM)

Reference: patent publication US5198445A, “Composition and use of substituted 3-thio-2-propynenitriles as industrial antimicrobials” (The Dow Chemical Company, priority 1992, dated 1993)
